# Experimental data: patent publication US10322133B2, “Synthetic lethal drug combination for treating renal cell carcinoma” (Commissariat a l'Energie Atomique et aux Energies …, priority 2015, dated 2019)
# Columns and labels:
# 786-O VHL^− cells [1] = assay: Viability assay (PrestoBlue) / high-throughput drug-gene screening; assay type: cell-based, human; details: for sensitivity of cells to ATM inhibitor after shRNA-mediated knockdown of CK2α (cell viability): shCK2α vs shCTRL 786-O cells, 48 h
# Description: Cytotoxicity was measured using PrestoBlue assay (Invitrogen, Carlsbad, Calif.). Cell lines were seeded in a 96-well microtiter plate at a concentration of 5×10^4 cells/mL. Cells were allowed to attach for 24 hrs at 37° C. and 5% CO2. The cells were exposed to the negative control DMSO or positive drug CX-4945 at 20 μM for 48 h or the other molecules at indicated concentrations. […] DMSO was used as a negative control and 20 μM CX-4945 as a positive control. Plates were further cultured for 48 hrs. Cells were labeled with vital Hoechst (33342) together with Prestoblue and the fluorescence reading was made through the Tecan's Infinite M100 reader. See Flow chart in FIG. 1. Raw data were first imported into the database of the home-made analysis software TAMIS, used for analysis. […] Finally, for each compound X/targeted-shRNA Y pair and assay, the activity percentage obtained with the compound X/Ctrl-shRNA was taken from the compound X/targeted-shRNA Y activity percentage in order to identify compound X/targeted-shRNA Y pair showing additive, or even synergistic, effect compared to compound X/Ctrl-shRNA pair.
# ATM = biological target: T1, ATM (Homo sapiens, UniProt Q13315); assay: Western blot of ATM phosphorylation in 786-O cells; assay type: cell-based; details: 786-O VHL^+/−, 1.5% O2, 5 μM, 48 h
# T1 construct: endogenous in cells; host or cells: 786-O cells (VHL- and VHL+), cultured under 1.5% O2
# Description: Blotted membranes were blocked during 1 h at room temperature with saturation buffer (1% BSA in TBST), and then incubated with primary antibody diluted in saturation buffer, during 1 h 30. Secondary antibodies were added for 1 hour.
# 786-O VHL^− cells [2] = assay: 3D assay on Multicellular Tumor Spheroids (Propidium Iodide); assay type: cell-based, human; details: 5 μM, 48 h, P≤0.0001 Kruskal-Wallis
# Description: For 3-D culture (spheroids), the spheroids were prepared in 96-wells U-bottom tissue culture plate with low evaporation Lid (Microtest™, Becton Dickinson Labware, San Jose, Calif.) coated with 20 mg/mL of poly-HEMA per well to allow the formation of spheroids. Renal cancer cells 786-O WT, 786-O pBABE and 786-O VHL (taken from exponentially growing cultures) were seeded at a density of […] in RPMI supplemented with 10% FCS. 90 μL (9×10^2 cells) of these cell suspensions were deposed in each well then tissue culture plates were incubated at 37° C. and 5% CO2 for 3 days before drug treatment for further 48 h.
# Three days pre-formed spheroids were treated with the different drugs at indicated concentrations during 48 H. After that, Hoechst (200 ng/mL) and Propidium Iodide (1 μg/mL) were added as markers of cell nuclei and cell death respectively. Images of IP and Hoechst fluorescence were acquired at the CMBA platform using the automated microscope ArrayScanVTI (ThermoScientific). ArrayScanVTI is a fluorescent microscope which allows the rapid and fully automated acquisition of images of fixed or live cells in 96-well microplates at different magnifications. Dedicated softwares are used to automatically perform High Content image Analysis like spheroid area measurement, fluorescent intensity measurement of each staining and counting of the number of dead cells.
# 786-O VHL^− cells [3] = assay: FACS cell cycle analysis (Propidium Iodide); assay type: cell-based, human; details: hypoxic conditions, 48 h
# Description: FIG. 6: A) FACS analysis of 786-O VHL^− cells treated for 48 h with indicated compounds under hypoxic conditions and labeled with Propidium Iodide for cell cycle analysis.
# T1 sequence (Q13315 whole entry): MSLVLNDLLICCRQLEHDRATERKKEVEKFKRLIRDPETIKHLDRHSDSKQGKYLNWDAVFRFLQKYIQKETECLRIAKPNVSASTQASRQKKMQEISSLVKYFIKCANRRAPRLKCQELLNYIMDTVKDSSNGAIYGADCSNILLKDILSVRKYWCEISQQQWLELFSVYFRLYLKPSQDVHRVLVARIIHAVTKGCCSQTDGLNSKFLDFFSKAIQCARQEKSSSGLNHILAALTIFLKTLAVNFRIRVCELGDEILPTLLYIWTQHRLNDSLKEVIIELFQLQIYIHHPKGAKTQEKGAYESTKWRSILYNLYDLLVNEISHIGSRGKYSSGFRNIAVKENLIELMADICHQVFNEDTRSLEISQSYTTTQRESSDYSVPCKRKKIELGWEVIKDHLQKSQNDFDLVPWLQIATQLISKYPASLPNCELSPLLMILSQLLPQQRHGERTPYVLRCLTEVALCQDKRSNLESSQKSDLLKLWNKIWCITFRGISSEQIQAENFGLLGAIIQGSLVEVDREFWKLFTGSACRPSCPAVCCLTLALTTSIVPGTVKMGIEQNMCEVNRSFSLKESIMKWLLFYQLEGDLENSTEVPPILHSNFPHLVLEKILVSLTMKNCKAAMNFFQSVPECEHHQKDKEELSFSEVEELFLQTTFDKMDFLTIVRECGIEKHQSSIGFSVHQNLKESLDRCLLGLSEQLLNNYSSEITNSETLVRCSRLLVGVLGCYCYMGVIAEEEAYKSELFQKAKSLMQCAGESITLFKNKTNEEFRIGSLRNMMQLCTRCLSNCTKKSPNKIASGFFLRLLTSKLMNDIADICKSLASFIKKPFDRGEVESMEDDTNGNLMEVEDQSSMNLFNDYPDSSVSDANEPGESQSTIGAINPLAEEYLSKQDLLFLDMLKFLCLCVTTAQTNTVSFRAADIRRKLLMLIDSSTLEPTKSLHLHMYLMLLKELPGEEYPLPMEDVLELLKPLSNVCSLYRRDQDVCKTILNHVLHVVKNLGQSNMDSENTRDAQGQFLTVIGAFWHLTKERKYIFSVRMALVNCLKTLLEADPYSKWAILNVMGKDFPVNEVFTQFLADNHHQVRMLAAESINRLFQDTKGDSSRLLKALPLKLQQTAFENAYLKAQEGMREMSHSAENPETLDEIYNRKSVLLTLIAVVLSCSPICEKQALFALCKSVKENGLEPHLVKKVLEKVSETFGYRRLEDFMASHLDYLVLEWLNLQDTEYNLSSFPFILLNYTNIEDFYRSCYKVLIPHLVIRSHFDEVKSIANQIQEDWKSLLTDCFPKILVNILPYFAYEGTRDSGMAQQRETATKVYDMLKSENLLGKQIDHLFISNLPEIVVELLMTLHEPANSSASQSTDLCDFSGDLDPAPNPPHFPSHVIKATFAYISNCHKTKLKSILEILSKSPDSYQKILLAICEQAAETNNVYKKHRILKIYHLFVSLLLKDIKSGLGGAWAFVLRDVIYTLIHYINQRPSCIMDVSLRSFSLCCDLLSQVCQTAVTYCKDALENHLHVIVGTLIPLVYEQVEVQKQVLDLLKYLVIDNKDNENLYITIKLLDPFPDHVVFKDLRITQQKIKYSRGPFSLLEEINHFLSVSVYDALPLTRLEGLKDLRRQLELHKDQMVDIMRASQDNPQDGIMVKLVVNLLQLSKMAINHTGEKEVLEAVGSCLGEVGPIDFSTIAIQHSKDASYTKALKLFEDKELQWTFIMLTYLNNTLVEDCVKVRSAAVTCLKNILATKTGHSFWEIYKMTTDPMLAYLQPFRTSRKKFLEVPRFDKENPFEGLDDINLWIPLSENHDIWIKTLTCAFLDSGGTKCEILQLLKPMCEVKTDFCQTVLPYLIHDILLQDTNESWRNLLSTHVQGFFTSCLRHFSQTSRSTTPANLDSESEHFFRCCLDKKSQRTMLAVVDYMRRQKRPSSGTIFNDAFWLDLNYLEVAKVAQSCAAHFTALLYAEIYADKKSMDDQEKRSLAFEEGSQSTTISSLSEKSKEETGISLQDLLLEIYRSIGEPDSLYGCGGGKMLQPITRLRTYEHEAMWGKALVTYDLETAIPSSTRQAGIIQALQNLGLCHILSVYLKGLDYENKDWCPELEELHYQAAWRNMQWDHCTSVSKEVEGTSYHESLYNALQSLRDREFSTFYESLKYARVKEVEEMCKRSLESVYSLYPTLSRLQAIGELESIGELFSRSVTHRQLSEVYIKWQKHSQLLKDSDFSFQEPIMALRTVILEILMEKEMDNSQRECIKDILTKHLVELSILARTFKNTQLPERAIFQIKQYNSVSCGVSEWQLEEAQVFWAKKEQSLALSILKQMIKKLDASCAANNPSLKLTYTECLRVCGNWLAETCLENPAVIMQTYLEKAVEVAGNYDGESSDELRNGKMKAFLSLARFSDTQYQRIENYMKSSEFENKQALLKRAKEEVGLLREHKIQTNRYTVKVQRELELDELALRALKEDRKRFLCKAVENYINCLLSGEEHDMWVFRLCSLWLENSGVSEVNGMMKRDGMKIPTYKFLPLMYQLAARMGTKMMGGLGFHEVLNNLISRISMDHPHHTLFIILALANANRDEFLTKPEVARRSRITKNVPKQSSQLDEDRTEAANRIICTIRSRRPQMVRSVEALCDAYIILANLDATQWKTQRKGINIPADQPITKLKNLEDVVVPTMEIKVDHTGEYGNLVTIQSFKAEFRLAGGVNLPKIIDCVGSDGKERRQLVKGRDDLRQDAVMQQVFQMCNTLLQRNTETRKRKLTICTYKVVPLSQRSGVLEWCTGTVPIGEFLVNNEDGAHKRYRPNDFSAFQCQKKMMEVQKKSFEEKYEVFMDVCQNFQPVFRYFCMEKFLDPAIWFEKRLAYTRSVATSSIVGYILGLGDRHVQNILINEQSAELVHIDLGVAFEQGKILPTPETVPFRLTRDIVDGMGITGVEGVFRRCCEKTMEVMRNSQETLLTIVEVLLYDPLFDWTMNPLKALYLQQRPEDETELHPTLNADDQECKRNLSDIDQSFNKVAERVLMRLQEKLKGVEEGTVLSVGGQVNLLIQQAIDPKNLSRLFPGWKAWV
SMILES,"efficiency of ATM inhibitor compared with KU-55933 (786-O VHL^− cells [1]; 786-O cell viability, with CK2 inhibitors (FIG. 2C))",sensitivity of cells to ATM inhibitor after shRNA-mediated knockdown of CK2α (cell viability) (786-O VHL^− cells [1]),inhibition of ATM (phosphorylation of P-ATM Ser1981) (ATM),cell death in shCK2α MTS versus vehicle (DMSO) (786-O VHL^− cells [2]),effect on G1 phase (786-O VHL^− cells [3]),cell death in shATM MTS versus vehicle (786-O VHL^− cells [2])
"C[C@@H]1CN(CC(=O)Nc2ccc3c(c2)Cc2cccc(-c4cc(=O)cc(N5CCOCC5)o4)c2S3)C[C@H](C)O1 [KU-60019, 2-((2S,6R)-2,6-dimethylmorpholino)-N-(5-(6-morpholino-4-oxo-4H-pyran-2-yl)-9H-thioxanthen-2-yl)acetamide]",significantly more efficient,enhanced the sensitivity,clearly inhibited,Significant difference,,
"O=c1cc(-c2cccc3c2Sc2ccccc2S3)oc(N2CCOCC2)c1 [KU-55933, 2-Morpholin-4-yl-6-thianthren-1-yl-pyran-4-one]",,enhanced the sensitivity,,,,
"O=C(O)c1ccc2c(c1)nc(Nc1cccc(Cl)c1)c1ccncc12 [CX-4945, 5-(3-chlorophenylamino)benzo[c][2,6]naphthyridine-8-carboxylic acid]",,,,,without effect,Significant difference
